According to patent US20250179059A1 (The Regents of the University of California, priority 2021, published 2025):

Target: T1, human BRD4 bromodomain II (Homo sapiens, UniProt O60885)
T1 construct: human BRD4 bromodomain II [based on Genbank NM_058243, residues 349-460]; host or cells: E. coli
Experiment: Bromodomain binding assay (AlphaScreen), BRD4 BDII
Conditions: AlphaScreen assay, Table C2; read-out: BRD4 BDII IC50
Method in brief: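 E. coli-expressed N-terminal His6-tagged human BRD4 BDII (residues 349-460) or BDI (residues 44-170) was preincubated 30 min at room temperature with compound (10-point, 3-fold) in pH 7.5 HEPES buffer, 1% DMSO. Displacement of biotinylated tetra-acetylated H4 1-21 peptide was read by AlphaScreen, and IC50 came from curve fitting.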

Row | IC50 [nM] | SMILES
1 | 10 to 100 | CC(=O)Nc1ccc(-c2cccc(-c3cc(F)cc(N4CCNCC4)c3)c2O)cc1F [Example 178, N-(3,3″-difluoro-2′-hydroxy-5″-(piperazin-1-yl)-[1,1′:3′,1″-terphenyl]-4-yl)acetamide]
2 | 10 to 100 | CC(=O)Nc1ccc(-c2cccc(-c3cccc(N4CCN[C@@H](C)C4)c3)c2O)cc1F [Example 179, (S)-N-(3-fluoro-2′-hydroxy-3″-(3-methylpiperazin-1-yl)-[1,1′:3′,1″-terphenyl]-4-yl)acetamide]
3 | > 100 | CC(=O)Nc1ccc(-c2cccc(-c3cc(N4CCNCC4)ccc3C)c2O)cc1F [Example 181, N-(3-fluoro-2′-hydroxy-2″-methyl-5″-(piperazin-1-yl)-[1,1′:3′,1″-terphenyl]-4-yl)acetamide]
4 | 10 to 100 | CC(=O)Nc1ccc(-c2cccc(-c3cccc(N4C[C@@H]5CC[C@H]4CN5)c3)c2O)cc1F [Example 183, N-(3″-((1S,4S)-2,5-diazabicyclo[2.2.2]octan-2-yl)-3-fluoro-2′-hydroxy-[1,1′:3′,1″-terphenyl]-4-yl)acetamide]
5 | 10 to 100 | CC(=O)Nc1c(F)cc(-c2cccc(-c3cccc(N4CCNCC4)c3)c2O)cc1OCC1CC1 [Example 184, N-(3-(cyclopropylmethoxy)-5-fluoro-2′-hydroxy-3″-(piperazin-1-yl)-[1,1′:3′,1″-terphenyl]-4-yl)acetamide]
6 | > 100 | CC(=O)Nc1ccc(-c2cccc(-c3ccc(NC(C)=O)c(N4CCNCC4)c3)c2O)cc1N1CCNCC1 [Example 185, N,N′-(2′-hydroxy-3,3″-di(piperazin-1-yl)-[1,1′:3′,1″-terphenyl]-4,4″-diyl)diacetamide]
7 | > 100 | CC(=O)Nc1ccc(-c2cccc(-c3cccc(N4CCC(CN)CC4)c3)c2O)cc1F [Example 186, N-(3″-(4-(aminomethyl)piperidin-1-yl)-3-fluoro-2′-hydroxy-[1,1′:3′,1″-terphenyl]-4-yl)acetamide]
8 | 10 to 100 | CC(=O)Nc1ccc(-c2cccc(-c3cc(N4CCNCC4)ccc3F)c2O)cc1F [Example 187, N-(2″,3-difluoro-2′-hydroxy-5″-(piperazin-1-yl)-[1,1′:3′,1″-terphenyl]-4-yl)acetamide]
9 | > 100 | O=C1CCCN1c1ccc(-c2cccc(-c3ccccc3)c2O)cc1F [Example 188, 1-(3-fluoro-2′-hydroxy-[1,1′:3′,1″-terphenyl]-4-yl)pyrrolidin-2-one]
10 | 10 to 100 | O=C1CCCN1c1ccc(-c2cccc(-c3ccncc3)c2O)cc1F [Example 190, 1-(3-fluoro-2′-hydroxy-3′-(pyridin-4-yl)-[1,1′-biphenyl]-4-yl)pyrrolidin-2-one]
11 | > 100 | CC(=O)Nc1ccc(-c2cccc(-c3cccc(N4CCNCC4=O)c3)c2O)cc1F [Example 191, N-(3-fluoro-2′-hydroxy-3″-(2-oxopiperazin-1-yl)-[1,1′:3′,1″-terphenyl]-4-yl)acetamide]
12 | 10 to 100 | CC(=O)Nc1ccc(-c2cccc(-c3cccc(N4CCC5(CCNC5)CC4)c3)c2O)cc1F [Example 192, N-(3-fluoro-2′-hydroxy-3″-(2,8-diazaspiro[4.5]decan-8-yl)-[1,1′:3′,1″-terphenyl]-4-yl)acetamide]
13 | 1 to 10 | CC(=O)Nc1ccc(-c2cccc(-c3cccc(N4CC5(CCNC5)CC4=O)c3)c2O)cc1F (stereo not shown) [Example 194, N-(3-fluoro-2′-hydroxy-3″-(3-oxo-2,7-diazaspiro[4.4]nonan-2-yl)-[1,1′:3′,1″-terphenyl]-4-yl)acetamide]
14 | 10 to 100 | CC(=O)Nc1ccc(-c2cccc(-c3cccc(N4CCC5(CCNCC5)CC4)c3)c2O)cc1F [Example 195, N-(3-fluoro-2′-hydroxy-3″-(3.9-diazaspiro[5.5]undecan-3-yl)-[1,1′:3′,1″-terphenyl]-4-yl)acetamide]
15 | 10 to 100 | CC(=O)Nc1ccc(-c2cccc(-c3cccc(N4CCC5(CC4)CNC5)c3)c2O)cc1F [Example 196, N-(3-fluoro-2′-hydroxy-3″-(2,7-diazaspiro[3.5]nonan-7-yl)-[1,1′:3′,1″-terphenyl]-4-yl)acetamide]
16 | 1 to 10 | O=C1NCCN1c1ccc(-c2cccc(-c3cccc(N4CCNCC4)c3)c2O)cc1F [Example 197, 1-(3-fluoro-2′-hydroxy-3″-(piperazin-1-yl)-[1,1′:3′,1″-terphenyl]-4-yl)imidazolidin-2-one]
17 | 1 to 10 | CC(=O)Nc1ccc(-c2cccc(-c3ccnc(N4CCC(CO)CC4)c3)c2O)cc1F [Example 198, N-(3-fluoro-2′-hydroxy-3′-(2-(4-(hydroxymethyl)piperidin-1-yl)pyridin-4-yl)-[1,1′-biphenyl]-4-yl)acetamide]
18 | 1 to 10 | CC(=O)Nc1ccc(-c2cccc(-c3cccc(N4CC(C)NC(C)C4)c3)c2O)cc1F (stereo not shown) [Example 200, N-(3″-(3,5-dimethylpiperazin-1-yl)-3-fluoro-2′-hydroxy-[1,1′:3′,1″-terphenyl]-4-yl)acetamide]
19 | 10 to 100 | COC(=O)c1cc(-c2cccc(-c3ccc(NC(C)=O)c(F)c3)c2O)ccn1 [Example 201, Methyl 4-(4′-acetamido-3′-fluoro-2-hydroxy-[1,1′-biphenyl]-3-yl)picolinate]

Row | IC50 [nM] | SMILES
20 | > 100 | CC(=O)Nc1ccc(-c2cccc(-c3cccc(-c4ccc(N)nc4)c3)c2O)cc1F [Example 202, N-(3″-(6-aminopyridin-3-yl)-3-fluoro-2′-hydroxy-[1,1′:3′,1″-terphenyl]-4-yl)acetamide]
21 | 1 to 10 | CC(=O)Nc1ccc(-c2cccc(-c3cccc(N4CCC(CN)C4)c3)c2O)cc1F (stereo not shown) [Example 203, N-(3″-(3-(aminomethyl)pyrrolidin-1-yl)-3-fluoro-2′-hydroxy-[1,1′:3′,1″-terphenyl]-4-yl)acetamide]
22 | 1 to 10 | CC(=O)Nc1ccc(-c2cccc(-c3cccc(-c4ccnc(N)c4)c3)c2O)cc1F [Example 204, N-(3″-(2-aminopyridin-4-yl)-3-fluoro-2′-hydroxy-[1,1′:3′,1″-terphenyl]-4-yl)acetamide]
23 | 1 to 10 | CC(=O)Nc1ccc(-c2cccc(-c3ccnc(C(=O)O)c3)c2O)cc1F [Example 205, 4-(4′-acetamido-3′-fluoro-2-hydroxy-[1,1′-biphenyl]-3-yl)picolinic acid]
24 | > 100 | O=C1CCCN1c1c(F)cc(-c2cccc(-c3ccncc3)c2O)cc1F [Example 207, 1-(3,5-difluoro-2′-hydroxy-3′-(pyridin-4-yl)-[1,1′-biphenyl]-4-yl)pyrrolidin-2-one]
25 | > 100 | CC(=O)Nc1ccc(-c2cccc(-c3cccc(-c4nc[nH]n4)c3)c2O)cc1F [Example 208, N-(3-fluoro-2′-hydroxy-3″-(1H-1,2,4-triazol-3-yl)-[1,1′:3′,1″-terphenyl]-4-yl)acetamide]
26 | 1 to 10 | CC(=O)Nc1ccc(-c2cccc(-c3cccc(C4CCNCC4)c3)c2O)cc1F [Example 210, N-(3-fluoro-2′-hydroxy-3″-(piperidin-4-yl)-[1,1′:3′,1″-terphenyl]-4-yl)acetamide]
27 | > 100 | CC(=O)Nc1ccc(-c2cccc(-c3ccnc(C(N)=O)c3)c2O)cc1F [Example 211, 4-(4′-acetamido-3′-fluoro-2-hydroxy-[1,1′-biphenyl]-3-yl)picolinamide]
28 | > 100 | CC(=O)Nc1ccc(-c2cccc(-c3csc(N4CCNCC4)n3)c2O)cc1F [Example 212, N-(3-Fluoro-2′-hydroxy-3′-(2-(piperazin-1-yl)thiazol-4-yl)-[1,1′-biphenyl]-4-yl)acetamide]
29 | 10 to 100 | O=C1CCCN1c1ccc(-c2cccc(-c3ccncc3)c2O)cc1Cl [Example 213, 1-(3-Chloro-2′-hydroxy-3′-(pyridin-4-yl)-[1,1′-biphenyl]-4-yl)pyrrolidin-2-one 2,2,2-trifluoroacetate]
30 | 1 to 10 | CC(=O)Nc1ccc(-c2cccc(-c3cc(N4CCNCC4)cc(C(F)(F)F)c3)c2O)cc1F [Example 215, N-(3-fluoro-2′-hydroxy-3″-(piperazin-1-yl)-5″-(trifluoromethyl)-[1,1′:3′,1″-terphenyl]-4-yl)acetamide]
31 | 1 to 10 | O=C1CCCN1c1ccc(-c2cc(F)cc(-c3ccnc(N4CCNCC4)c3)c2O)cc1F [Example 216, 1-(3,5′-Difluoro-2′-hydroxy-3′-(2-(piperazin-1-yl)pyridin-4-yl)-[1,1′-biphenyl]-4-yl)pyrrolidin-2-one]
32 | 1 to 10 | CC(=O)Nc1ccc(-c2cccc(-c3cc(N4CCNCC4)nc(N4CCNCC4)c3)c2O)cc1F [Example 218, N-(3′-(2,6-di(piperazin-1-yl)pyridin-4-yl)-3-fluoro-2′-hydroxy-[1,1′-biphenyl]-4-yl)acetamide]
33 | 10 to 100 | CC(=O)Nc1ccc(-c2cccc(-c3cccc(N4CC5(CNC5)C4)c3)c2O)cc1F [Example 219, N-(3-fluoro-2′-hydroxy-3″-(2,6-diazaspiro[3.3]heptan-2-yl)-[1,1′:3′,1″-terphenyl]-4-yl)acetamide]
34 | 10 to 100 | CC(=O)Nc1ccc(-c2cccc(-c3cccc(N4CC(CN)C4)c3)c2O)cc1F [Example 220, N-(3″-(3-(aminomethyl)azetidin-1-yl)-3-fluoro-2′-hydroxy-[1,1′:3′,1″-terphenyl]-4-yl)acetamide]
35 | 1 to 10 | CC(=O)Nc1ccc(-c2cccc(-c3cccc(N4CCC5(CCNC5)C4)c3)c2O)cc1F (stereo not shown) [Example 221, N-(3-fluoro-2′-hydroxy-3″-(2,7-diazaspiro[4.4]nonan-2-yl)-[1,1′:3′,1″-terphenyl]-4-yl)acetamide]
36 | 10 to 100 | O=C1CCCCN1c1ccc(-c2cccc(-c3cccc(N4CCNCC4)c3)c2O)cc1F [Example 223, 1-(3-fluoro-2′-hydroxy-3″-(piperazin-1-yl)-[1,1′:3′,1″-terphenyl]-4-yl)piperidin-2-one]
37 | > 100 | CC(=O)Nc1ccc(-c2cccc(-c3ccnc(N4CC(O)C4)c3)c2O)cc1F [Example 225, N-(3-fluoro-2′-hydroxy-3′-(2-(3-hydroxyazetidin-1-yl)pyridin-4-yl)-[1,1′-biphenyl]-4-yl)acetamide]
